# Data from US9360484B2, “Anti-FcRH5 antibodies and immunoconjugates and methods of use” (Genentech, Inc., priority 2009, dated 2016).
# Experiments:
# [1] = test system: OPM2-FcRH5 tumors (OPM2 multiple myeloma cells stably transfected with human FcRH5); experiment: OPM2-FcRH5 xenograft: Hu anti-FcRH5 10A8-MC-vc-PAB-MMAE in combination with Revlimid and Revlimid plus Dexamethasone; format: in vivo, CB17 ICR SCID mice; conditions: for CR (mice with Complete Remission: tumor volume dropped to 0 mm^3) / PR (mice with Partial Regression: tumor volume dropped below 50% of day 0) / TI (number of observable tumors at end of study): 38 day time course, ADC 6 mg/kg single IV day 0, Revlimid 50 mg/kg IP daily, Dexamethasone 3 mg/kg PO; for percent body weight change (FIG. 44): first 17 days
# Description: Specifically, the ability of the antibody in combination with Revlimid® and Revlimid® plus Dexamethasone to regress tumors in OPM2 cells (Multiple myeloma cell line) stably transfected with human FcRH5 was examined. After transfection of linearized pRK.CMV.PD.nbe.FcRH5 into OPM2 cells and puromycin (Calbiochem, San Diego, Calif.) selection, surviving cells were separated for FcRH5 expressing cells with biotin (Pierce Biotechnology, Rockford, Il) labeled anti-FcRH5.7D11 and MACS anti-Biotin microbeads on an MACS LS column (Miltenyi Biotec, Auburn, Calif.).
# For analysis of efficacy of Hu anti-FcRH5 10A8 conjugated to -MC-vc-PAB-MMAE in combination with Revlimid® and Revlimid® plus Dexamethasone, female CB17 ICR SCID mice (6-8 weeks of age from Charles Rivers Laboratories; Hollister, Calif.) were inoculated subcutaneously with 2×10^7 OPM2-FcRH5 cells via injection into the flanks of CB17 ICR SCID mice and the xenograft tumors were allowed to grow to an average of 446 mm^3. Day 0 refers to the day the tumors were 263-630 mm^3 and when the first/or only dose of treatment was administered, unless indicated specifically below. Tumor volume was calculated based on two dimensions, measured using calipers, and was expressed in mm3 according to the formula: V=0.5a×b^2, where a and b are the long and the short diameters of the tumor, respectively. Data collected from each experimental group were expressed as mean+SE. Mice were randomized into nine groups of 8 mice each and dosed. Group 1 received daily intraperitoneal (IP) injections of a mixture of DMSO and MCT buffer on Days 0-13 as a vehicle control. […] Group 4 received daily IP injections of 50 mg/kg Revlimid® on Days 0-13. Group 5 received daily oral (PO) dosing of 3 mg/kg Dexamethasone for four days followed by three days off for two cycles on Days 0-3 and 7-10. Group 6 received daily IP injections of 50 mg/kg Revlimid® on Days 0-13 plus daily PO dosing of 3 mg/kg Dexamethasone for four days followed by three days off for two cycles on Days 0-3 and 7-10. […] Tumors were measured twice a week throughout the experiment. Body weights of mice were measured twice a week throughout the experiment. If mice experienced a body weight loss of greater than 15% compared to their body weight on Day 0, mice were weighed daily until weight regained or until body weight loss reached greater than 20%. […] All animal protocols were approved by an Institutional Animal Care and Use Committee (IACUC).
# OPM2-FcRH5 tumors = experiment: Inhibition of in vivo tumor growth, OPM2-FcRH5 xenografts, hu10A8-MC-vc-PAB-MMAE alone and in combination with Velcade (Example 8, Table 14); set-up: species or system CB17 ICR SCID mice
# Description: Specifically, the ability of the antibody and Velcade® to regress tumors in OPM2 cells (Multiple myeloma cell line) stably transfected with human FcRH5 was examined. After transfection of linearized pRK.CMV.PD.nbe.FcRH5 into OPM2 cells and puromycin (Calbiochem, San Diego, Calif.) selection, surviving cells were separated for FcRH5 expressing cells with biotin (Pierce Biotechnology, Rockford, Il) labeled anti-FcRH5.7D11 and MACS anti-Biotin microbeads on an MACS LS column (Miltenyi Biotec, Auburn, Calif.).
# For analysis of efficacy of hu anti-FcRH5 10A8 conjugated with MC-vc-PAB-MMAE alone and in combination with Velcade®, female CB17 ICR SCID mice (6-8 weeks of age from Charles Rivers Laboratories; Hollister, Calif.) were inoculated subcutaneously with 2×10^7 OPM2-FcRH5 cells via injection into the flanks of CB17 ICR SCID mice and the xenograft tumors were allowed to grow to an average of 331 mm^3. Day 0 refers to the day the tumors were 172-511 mm^3 and when the first/or only dose of treatment was administered, unless indicated specifically below. Tumor volume was calculated based on two dimensions, measured using calipers, and was expressed in mm3 according to the formula: V=0.5a×b^2, where a and b are the long and the short diameters of the tumor, respectively. Data collected from each experimental group were expressed as mean±SE. Mice were randomized into nine groups of 9 mice each and dosed. Group 1 received a single intravenous (IV) injection of histidine buffer on Day 0 plus IV injections of 0.9% sodium chloride (saline) twice weekly for two weeks on Days 0, 3, 7, and 10 as a vehicle control. […] Group 3 received IV injections of 1 mg/kg Velcade® twice weekly for two weeks on Days 0, 3, 7, and 10. Group 4-5 received a single IV injection of 4 or 10 mg/kg thio hu anti-FcRH5(10A8)-HC-MC-vc-PAB-MMAE, CNJ 1465, respectively, on Day 0. […] Tumors were measured twice a week throughout the experiment. Body weights of mice were measured twice a week for the first three weeks. […] All animal protocols were approved by an Institutional Animal Care and Use Committee (IACUC).
# [2] = test system: OPM2-FcRH5 tumors (OPM2 multiple myeloma cells stably transfected with human FcRH5); experiment: OPM2-FcRH5 xenograft: Hu anti-FcRH5 10A8-SPDB-DM4 alone and in combination with Velcade; format: in vivo, CB17 ICR SCID mice
# Description: Specifically, the ability of the antibody and Velcade® to regress tumors in OPM2 cells (Multiple myeloma cell line) stably transfected with human FcRH5 was examined. After transfection of linearized […]5 into OPM2 cells and puromycin (Calbiochem, San Diego, Calif.) selection, surviving cells were separated for FcRH5 expressing cells with biotin (Pierce Biotechnology, Rockford, Il) labeled anti-FcRH5.7D11 and MACS anti-Biotin microbeads on an MACS LS column (Miltenyi Biotec, Auburn, Calif.). […] Data collected from each experimental group were expressed as mean±SE. Mice were randomized into six groups of 9 mice each and dosed. […] Group 2 received a single IV injection of histidine buffer on Day 0 plus IV injections of 0.9% sodium chloride (saline) twice weekly for two weeks on Days 0, 3, 7, and 10 as a vehicle control. […] Tumors were measured twice a week throughout the experiment. Body weights of mice were measured twice a week for the first three weeks. […] All animal protocols were approved by an Institutional Animal Care and Use Committee (IACUC).
# BJAB-FcRH5 tumors = experiment: In vivo tumor cell killing assay, BJAB-FcRH5 xenografts (Example 4); set-up: species or system CB17 ICR SCID mice; conditions: unconjugated antibody, 10.8 mg/kg i.v. day 0 and day 7, 8 mice
# Description: To test the efficacy of various anti-FcRH5 antibodies, murine anti-human antibodies were conjugated to DM1 and the effect of the conjugated variant on tumors in mice were analyzed.
# Specifically, the ability of the antibodies to regress tumors in BJAB-luciferase cells (Burkitt's lymphoma cell line stably transfected with human FcRH5.
# After transfection of pRK.CMV.PD.nbe.FcRH5 into BJAB-luciferase cells and puromycin (Calbiochem, San Diego, Calif.) selection, surviving cells were FACS autocloned for mid range expressers with anti-FcRH5 antibodies (7D11). Post autoclone, the BJAB-luciferase cell line expressing FcRH5 most closely resembling plasma cell expression, as determined by FACS, was chosen by FACS analysis using anti-FcRH5 antibodies (7D11). As a negative control, BJAB-luciferase transfected, in the same manner, with the empty vector pRK.CMV.PD.nbe were used.
# For analysis of efficacy mouse antibodies, female CB17 ICR SCID mice (6-8 weeks of age from Charles Rivers Laboratories; Hollister, Calif.) were inoculated subcutaneously with 2×10^7 BJAB-FcRH5 cells via injection into the flanks of CB17 ICR SCID mice and the xenograft tumors were allowed to grow to an average of 128 mm^3. Day 0 refers to the day the tumors were an average of 100-250 mm^3 and when the first/or only dose of treatment was administered, unless indicated specifically below. Tumor volume was calculated based on two dimensions, measured using calipers, and was expressed in mm^3 according to the formula: V=0.5a×b^2, where a and b are the long and the short diameters of the tumor, respectively. Data collected from each experimental group were expressed as mean±SE. Groups of 8 mice were treated with a weekly intravenous (i.v.) dose of 400 μg of antibody-linked drug/m^2 mouse (corresponding to ˜8-10 mg ADC/kg of mouse) with anti-FcRH5 ADC or control antibody-drug conjugates at day 0 and day 7. Tumors were measured twice a week throughout the experiment. Body weights of mice were measured either once a week throughout the experiment. […]
# cynomolgus FcRH5 = experiment: Cyno cross-reactivity by FACS on stably transfected cells (SVT2 cells expressing cynoFcRH5); format: binding, cynomolgus monkey; set-up: key to Cyno X-reactivity (FACS) on stable transfected cells: X*: *Very slight at saturating concentration
# Description: For additional FACS analysis of FcRH5 antibodies, 1.0 μg, 0.1 μg or 0.01 μg of antibody was titrated per million cells of BJAB cells stably expressing huFcRH5 and SVT2 cells stably expressing cynoFcRH5. Briefly, approximately 10^6 cells in 100 μl were incubated with varying amounts (1.0 ug, 01. ug or 0.01 ug) of murine Ab mu1H4, mu6H1, mu7D11, mu9E2, mu10A8, mu10F5, or mu13G9 per million cells of BJAB cells stably expressing huFcRH5 and SVT2 cells stably expressing cynoFcRH5. Incubation with 1.0 ug/10^6 cells of the appropriate Mu IgG isotype control was used as a negative control. PE conjugated Rat anti-MuIgG1 or Rat anti-MuIgG2a+b was used as the secondary detection antibody.
# [3] = Velcade 1 mg/kg twice weekly for two weeks (Days 0, 3, 7, 10), OPM2-FcRH5 xenograft, CB17 ICR SCID mice
# [4] = 37 day time course, ADC 4 mg/kg single IV day 0, Velcade 1 mg/kg IV days 0, 3, 7, 10
# Chain of cynomolgus FcRH5 (as listed by the source): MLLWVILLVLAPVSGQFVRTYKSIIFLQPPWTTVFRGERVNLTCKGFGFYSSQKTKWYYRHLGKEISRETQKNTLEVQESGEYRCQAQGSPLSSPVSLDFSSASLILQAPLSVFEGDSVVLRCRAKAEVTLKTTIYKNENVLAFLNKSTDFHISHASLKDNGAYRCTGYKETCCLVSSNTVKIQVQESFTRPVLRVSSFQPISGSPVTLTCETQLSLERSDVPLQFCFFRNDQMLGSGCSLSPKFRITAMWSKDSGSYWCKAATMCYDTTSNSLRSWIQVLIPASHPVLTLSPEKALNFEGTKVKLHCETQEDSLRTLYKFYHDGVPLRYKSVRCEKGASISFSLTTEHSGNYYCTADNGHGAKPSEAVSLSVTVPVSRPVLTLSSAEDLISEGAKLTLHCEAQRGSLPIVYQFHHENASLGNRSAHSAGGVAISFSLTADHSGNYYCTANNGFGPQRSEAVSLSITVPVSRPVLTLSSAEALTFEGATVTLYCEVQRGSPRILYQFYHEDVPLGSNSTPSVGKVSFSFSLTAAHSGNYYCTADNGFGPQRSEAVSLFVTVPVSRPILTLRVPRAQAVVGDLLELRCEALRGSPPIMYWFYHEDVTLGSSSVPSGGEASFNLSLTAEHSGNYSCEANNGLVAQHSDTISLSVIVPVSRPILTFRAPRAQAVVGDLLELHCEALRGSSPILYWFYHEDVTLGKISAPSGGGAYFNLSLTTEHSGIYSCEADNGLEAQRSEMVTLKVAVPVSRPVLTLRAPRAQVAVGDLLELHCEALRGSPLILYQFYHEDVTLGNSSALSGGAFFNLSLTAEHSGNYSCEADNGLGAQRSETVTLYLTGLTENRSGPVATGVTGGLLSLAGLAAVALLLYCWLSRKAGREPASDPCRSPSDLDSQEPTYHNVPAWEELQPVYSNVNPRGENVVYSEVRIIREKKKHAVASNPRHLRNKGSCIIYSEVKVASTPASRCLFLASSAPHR
molecule,measurement,setting,value
"Nc1cccc2c1CN(C1CCC(=O)NC1=O)C2=O (stereo not drawn) [Revlimid, lenalidomide]",CR (mice with Complete Remission: tumor volume dropped to 0 mm^3),[1],0
same,PR (mice with Partial Regression: tumor volume dropped below 50% of day 0),[1],0
same,TI (number of observable tumors at end of study),[1],4/4
same,percent body weight change (FIG. 44),[1],caused a significant decrease in body weight or weight loss
C[C@@H]1C[C@H]2[C@@H]3CCC4=CC(=O)C=C[C@]4(C)[C@@]3(F)[C@@H](O)C[C@]2(C)[C@@]1(O)C(=O)CO [Dexamethasone],CR (mice with Complete Remission: tumor volume dropped to 0 mm^3),[1],0
same,PR (mice with Partial Regression: tumor volume dropped below 50% of day 0),[1],0
same,TI (number of observable tumors at end of study),[1],5/5
same,percent body weight change (FIG. 44),[1],caused a significant decrease in body weight or weight loss
"CC(C)C[C@H](NC(=O)[C@H](Cc1ccccc1)NC(=O)c1cnccn1)B(O)O [Velcade®, bortezomib]",percent body weight change,"OPM2-FcRH5 tumors; first 24 days, 1 mg/kg IV twice weekly for two weeks","caused a decrease in body weight or weight loss through the duration of treatment, but weight rebounded after dosing was complete"
same,percent body weight change (FIG. 42),[2]; first 21 days,did not cause a significant decrease in body weight or weight loss
CC(C)C[C@H](NC(=O)[C@H](Cc1ccccc1)NC(=O)c1cnccn1)B(O)O [Velcade ®],CR (Complete Remission; number of mice with tumor volume dropped to 0 mm^3),OPM2-FcRH5 tumors; [3],0
same,PR (Partial Regression; number of mice with tumor volume below 50% of day 0 volume),OPM2-FcRH5 tumors; [3],0
same,TI (number of observable tumors at end of study),OPM2-FcRH5 tumors; [3],9/9
same,CR (mice with Complete Remission: tumor volume dropped to 0 mm^3),[2]; [4],0
same,PR (mice with Partial Regression: tumor volume dropped below 50% of day 0),[2]; [4],0
same,TI (number of observable tumors at end of study),[2]; [4],8/8
"7D11: murine monoclonal antibody binding human FcRH5 (antibody, V domains shown) VH: EVQLVESGGGLVQPGGSLKLSCAASGFTFSSYGMSWVRQTPDKRLELVATITRNGGTTYYLDSVKGRFTISRDNAKNTLYLQMSSLKSEDTAMYYCARGPIYYDYGYAMDYWGQGTTVTVSS VL: DILLTQSPAILSVSPGERVSFSCRSSQSIGTNIHWYQQRTNGSPRLLIKFASESLSGIPSRFSGSGSGTDFTLSINSVESEDFADYYCQQSNSWPLTFGAGTKVEIK","CR (Complete Remission, number of mice)",BJAB-FcRH5 tumors,0
same,"PR (Partial Regression, number of mice)",BJAB-FcRH5 tumors,0
same,TI (number of observable tumors at end of study),BJAB-FcRH5 tumors,8/8
same,Cyno X-reactivity (FACS) on stable transfected cells,cynomolgus FcRH5,X*
same,cross reaction with cynomolgus FcRH5 by FACS analysis,"cynomolgus FcRH5; 1.0, 0.1 or 0.01 μg antibody per million SVT2 cells stably expressing cynoFcRH5",cross react with cynomolgus FcRH5
